One assay deals with human diploid fibroblast. As to the kind of experiment: Growth suppression of human diploid fibroblast by DDS (data not shown). The assay is classed as cell-based. The conditions noted are these: read-out: DDS concentration that can suppress 50% growth of human diploid fibroblast (1050).
In assay [1] the target is T1, Type I pyruvate kinase of rabbit muscle (Oryctolagus cuniculus, UniProt P11974).
T1 construct: purchased Sigma; host or cells: rabbit muscle
As to the kind of experiment: Pyruvate kinase activity in vitro (LDH-coupled, 340 nm). The conditions noted are these: DDS added directly along with PK; FIG. 16A. The assay is classed as biochemical. How it is done:
PK activity was analyzed through the decrease degree of absorbance at 340 nm by using the change result from pyruvate and NADH to lactate and NAD by lactate dehydrogenase (LDH). The pyruvate and ATP used for the above process were produced from phosphoenolpyruvate (PEP) and ADP by PK. The analysis in vitro was measured by adding directly DDS along with PK to the above reaction mixture and the analysis in vivo was measured by adding worms that fed on DDS.
Samples were homogenized by rupturing C. elegans with glass bead Precellys 24 homogenizer, twice for 20 seconds, at 5000 rpm in a 100 mM potassium phosphate buffer, pH 7.6, at 37° C. A CHAPS was added to the homogenized sample to be 1% of the final concentration and then centrifuged at 15000 g for 20 minutes. The measurement of pyruvate kinase(PK) activity was performed at 37° C. by adding 300 uL of the reaction mixture contained 100 mM potassium phosphate buffer at pH 7.6 and 37° C., 100 mM MgSO4, 1.3 mM β-NADH, 5000 units/mL of lactate dehydrogenase (LDH), 2 mM adenosine diphosphate (ADP) and 17 mM phosphoenolpyruvate (PEP) into the sample. The change of oxidation degree of NADH was measured at 340 nm of absorbance. PK 1 unit was defined as the change into 1.0 umole of pyruvate per a minute at pH 7.6 and 37° C. […] Type I pyruvate kinase (Sigma) of rabbit muscle was used for in vitro experiment.

Another assay concerns SOD1. The experiment in a line: Western blot of SOD1 amount in human diploid fibroblast. The assay is classed as cell-based. The conditions noted are these: various concentrations of DDS, FIG. 25B. How it is done:
(§1) Trolox that is well known as a water-soluble vitamin E was used as a positive control.
(§2) The isolated sample was transferred to a nitrocellulose and analyzed through Western Blot using MS601 (Total OXPHOS Complexes Detection Kit, MitoSciences, containing antibodies against SDH30 subunit of complex II (5 μg/ml), Core2 subunit of complex III (0.2 μg/ml), COXII subunit of complex IV (2 μg/ml), and subunit α of F1-ATPase of complex V (0.2 μg/ml)), PCKpan-p, PCKα/β-p, PKCδ-p (Phospho-PKC antibody Sampler Kit, Cell Signaling Technology), PKC α, PCKβ, PKCδ (Life Technologies), β-Actin (Sigma), and the like. The measurement was performed by using a horseradish […] secondary antibodies (Zymed) and ECL (Pierce). The results were shown through visualizing by using Autoradiographic film (Image Reader, LAS-3000Fujifilm, Japan).
In general terms: A western blot detects proteins with antibodies after separation by electrophoresis.

Assay [2] has as its system C. elegans. The experiment in a line: Oxidative stress resistance test, survival in 250 mM paraquat. The assay is classed as in vivo. The conditions noted are these: PQ 250 mM; compared with control C. elegans; FIG. 12. As for the experimental part: C. elegans at 5 days after administrating dapsone for second generations was used for testing an oxidative stress resistance by dapsone. 250 mM of paraquat was dissolved in M9 solution and then 20 C. elegans was immersed into the above solution. The number of living C. elegans was measured per an hour.

The test system of a further assay is SOD2. The experiment in a line: Western blot of SOD2 amount in human diploid fibroblast. The assay is classed as cell-based. The conditions noted are these: various concentrations of DDS, FIG. 25B. How it is done: as §1, §2
Another assay relates to mitochondria. As to the kind of experiment: Mitochondria structure staining with MitoTracker Red. The assay is classed as cell-based, human. The conditions noted are these: pretreated with DDS or DPI, then 1 mM PQ 24 hours; FIG. 30. How it is done: The first photograph indicates the stained mitochondria of the non-treated human diploid fibroblast as a control, the second photograph indicates the stained mitochondria of the PQ-treated human diploid fibroblast, the third photograph indicates the stained mitochondria of the human diploid fibroblast that was pretreated with DDS and then was treated with PQ, and the final photograph indicates the stained mitochondria of the human diploid fibroblast that was treated with DPI and PQ together (by using Confocal process). The values of (A, B, C and D: ×4000) is means±SEM (n=3), # is p<0.005 relative CC; and * is p<0.005 relative C.
The human diploid fibroblasts were cultured at 24-well plate. After the above experiment materials, i.e., the human diploid fibroblasts, were pretreated and then were treated with PQ for 24 hours, the above cells were treated with MitoTracker Red CMXRos (50 nM), which is a staining material for mitochondria, at 37° C. for 30 minutes. The dye is a marker of function for marking mitochondria through marking a transmembrane potential of mitochondria in a cell. After culturing, the cells were washed with PBS and then fixed with 4% of paraformaldehyde at 4° C. for overnight. […] After washing, the cells were covered with a cover glass and visualized through a fluorescence microscope.

The next assay deals with pyruvate. The experiment in a line: Pyruvate content in C. elegans (fluorescence-based assay kit). The assay is classed as in vivo. The conditions noted are these: C. elegans that fed on DDS; FIG. 17A. How it is done:
The measurement of pyruvate content was performed by using Fluorescence-based assay kit (BioVision) was purchased according to its instructions. […] Three measurements were performed.

In another assay the test system is ATP. As to the kind of experiment: Measurement of ATP amount in C. elegans. It is filed as in vivo. The conditions noted are these: C. elegans treated with DDS; FIG. 9. How it is done:
The amount of ATP was measured by slightly modifying the method as mentioned above. In order to, analyze the total amount of ATP, C. elegans was cultured by feeding only on PABA or by feeding on PABA and dapsone, and then was washed with S Basal buffer solution (0.1 M NaCl/0.05 M potassium phosphate buffer, pH 6.0) to remove a contaminant and prepare a sample for measuring. The sample was ultimately adjusted to be 100 ul and then froze at −80° C. C. elegans that was frozen was immediately heated for 15 minutes to erupt ATP and then maintained at a cold condition. Since then, the residue of C. elegans was removed by using a centrifuge (at 15,000 g for 5 minutes). The amount of ATP was measured by using the reagent of bioluminescence assay kit CLS II (Roche Molecular Biochemicals) and Luminometer (available from PerkinElmer company). The amount of ATP was standardized with the amount of protein.

Assay [3] relates to C. elegans. As to the kind of experiment: Oxygen uptake rate of C. elegans (Clark-type oxygen electrode). The assay is classed as in vivo. The conditions noted are these: C. elegans treated with DDS; FIG. 10. How it is done:
The oxygen uptake rate was measured by using the method disclosed in the theses (50, 51) using Clark-type oxygen electrode (782 Oxygen Meter, Strathkelvin Instruments, Glasgow, UK). […] Approximately 1500 C. elegans in 200 uL of S-basal buffer were added to Mitocell chamber with Clark-type oxygen electrode to measure the oxygen uptake rate for several minuets. A sample was carefully taken from the chamber and then twice homogenized at 5000 rpm for 20 seconds by using Precellys24 homogenizer with glass bead. The sample was centrifuged at 15000 g for 20 minutes and the protein in the supernatant was quantified by using BCA protein quantification kit.

The structures appear in SMILES notation.

T1 sequence (P11974 whole entry): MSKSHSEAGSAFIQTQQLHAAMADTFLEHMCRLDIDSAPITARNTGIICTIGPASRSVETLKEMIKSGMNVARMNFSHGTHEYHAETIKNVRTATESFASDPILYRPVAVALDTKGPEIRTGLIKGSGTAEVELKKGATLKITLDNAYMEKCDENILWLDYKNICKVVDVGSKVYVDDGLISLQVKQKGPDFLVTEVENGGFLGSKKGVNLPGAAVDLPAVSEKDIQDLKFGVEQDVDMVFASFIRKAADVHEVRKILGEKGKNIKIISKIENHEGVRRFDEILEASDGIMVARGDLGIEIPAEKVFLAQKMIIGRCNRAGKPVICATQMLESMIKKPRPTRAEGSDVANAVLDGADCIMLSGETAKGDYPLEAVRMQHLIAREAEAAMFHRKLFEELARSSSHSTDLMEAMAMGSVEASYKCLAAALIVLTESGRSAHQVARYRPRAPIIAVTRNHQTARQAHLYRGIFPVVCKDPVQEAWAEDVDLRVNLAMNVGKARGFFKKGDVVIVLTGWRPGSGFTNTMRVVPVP

With `Nc1ccc(S(=O)(=O)c2ccc(N)cc2)cc1` [DDS, 4,4′-diaminodiphenylsulfone], in the assay on human diploid fibroblast, the IC50 is around 745 µM. In addition, the “biochemical activity of PK in vitro” value in assay [1] is “suppresses”. Besides, the “amount of SOD1” value in the assay with SOD1 is given as “decreases”. Further, in the assay with C. elegans [2], the “survival rate in NGM liquid medium containing PQ” value was “significantly increased”. Also, in the assay on SOD2, the “amount of SOD2” value is recorded as “decreases”. For the same molecule, in the assay with mitochondria, the “shape of mitochondria after PQ (MitoTracker)” value is recorded as “recovered, partially”. Besides, in the assay on pyruvate, the “content of pyruvate compared with a control” value was “high content of pyruvate”. Besides, the ATP amount result with ATP is on record as “decreased”. For the same molecule, the oxygen uptake rate result in the assay with C. elegans [3] is reported as “meaningfully decreased”.
